In ChEMBL document CHEMBL5506044, “Ligandability Assessment of IL-1β by Integrated Hit Identification Approaches” (J Med Chem, 2024) one finds IC50 and Ki data, which are given here for ten molecules.

In assay [1] the target is T1, Interleukin-1 beta (Homo sapiens, UniProt P01584).
Description: Antagonist activity at human recombinant His-tagged wild type IL-1 beta assessed as inhibition of IL-1 beta/Alexa 647 labeled human IL-1R1 (1 to 332) interaction preincubated with IL-1 beta for 1 hr followed by IL-1R1 addition and measured after 1 hr by TR-FRET assay
The next assay deals with T2, Interleukin-1 alpha (Homo sapiens, UniProt P01583).
T2 sequence (P01583 whole entry): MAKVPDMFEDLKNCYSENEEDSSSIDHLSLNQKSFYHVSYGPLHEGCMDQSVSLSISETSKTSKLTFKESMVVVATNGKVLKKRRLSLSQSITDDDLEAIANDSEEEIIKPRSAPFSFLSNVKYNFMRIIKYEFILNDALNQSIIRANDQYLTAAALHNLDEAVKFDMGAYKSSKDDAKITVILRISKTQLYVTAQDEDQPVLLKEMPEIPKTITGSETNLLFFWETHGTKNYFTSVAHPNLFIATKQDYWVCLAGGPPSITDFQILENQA

The target of assay [2] is T1, Interleukin-1 beta. The source holds these as a separate data set.
Assay [3] addresses T1, Interleukin-1 beta. This is another data set of the same source.
Description: Antagonist activity at human IL-1 beta assessed as inhibition of interaction of IL-1beta/IL-1R1 expressed in HEK293-Blue cells by measuring reduction in SEAP activity preincubated with IL-1 beta for 1 hr followed by incubation with cells and measured after overnight by reporter gene assay
Assay [4] deals with T1, Interleukin-1 beta. The source holds these as a separate data set.
Description: Antagonist activity at human IL-1 beta assessed as inhibition of interaction of IL-1 beta/IL-1R1 expressed in NHDF cells by measuring reduction in IL-6 production preincubated with IL-1 beta for 1 hr followed by incubation with cells and measured after 6 hrs by ELISA

Bridge positions count the residues as written; N and C are the ends. Peptide text beside a SMILES is read from it. Bounds are passed on as bounds.

T1 sequence (P01584 117-269 limits assumed): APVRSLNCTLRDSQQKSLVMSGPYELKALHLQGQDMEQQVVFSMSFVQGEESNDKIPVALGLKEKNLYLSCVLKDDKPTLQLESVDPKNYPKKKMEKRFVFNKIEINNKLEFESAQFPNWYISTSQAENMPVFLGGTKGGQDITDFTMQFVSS
Description for Interleukin-1 alpha: Antagonist activity at human recombinant His-tagged wild type IL-1 alpha assessed as inhibition of IL-1 alpha/Alexa 647 labeled human IL-1R1 (1 to 332) interaction preincubated with IL-1 alpha for 1 hr followed by IL-1R1 addition and measured after 1 hr by TR-FRET assay

Usually IC50 stands for the concentration at which inhibition is half-maximal. Regarding `CC(C)c1cc(-c2cc(C(=O)O)cn3cc(C(=O)N4CCN(S(=O)(=O)c5ccccc5)CC[C@H]4C(=O)NCCN4CCOCC4)nc23)ccc1C=O`, the results for the IC50 against Interleukin-1 beta [1] and on Interleukin-1 alpha were 8.3 µM and 99 µM, respectively. A word on the Ki: it is a dissociation constant, usually derived from enzyme kinetics or from competition with a known ligand. The low end stands for tighter binding, the high end for weaker binding. `OC(c1ccc(OC(F)F)cc1)(c1cccc(Br)c1)c1cc[nH]n1` (racemic): the Ki on Interleukin-1 beta [2] was greater than 1000 µM. Turning to `CC(C)c1cccc(-c2cc(C(=O)O)cn3cc(C(=O)N4CCN(S(=O)(=O)c5ccccc5)CCC4C(=O)NCCN4CCOCC4)nc23)c1` (configuration not stated), the half-maximal inhibitory concentration (IC50) on Interleukin-1 beta [1] is greater than 200 µM.

In the case of `CC(C)c1cc(-c2cc(C(=O)O)cn3cc(C(=O)N4CCN(S(=O)(=O)c5ccccc5)CC[C@@H]4C(=O)NCCN4CCOCC4)nc23)ccc1C=O`, the IC50 was 78.4 µM at Interleukin-1 beta [1] and greater than 200 µM on Interleukin-1 alpha. The molecule `CC(C)c1cc(-c2cc(C(=O)O)cn3cc(C(=O)N4CCN(S(=O)(=O)c5ccccc5)CCC4C(=O)NCCN4CCOCC4)nc23)ccc1C=O` (racemic) yielded an IC50 against Interleukin-1 beta [1] of 11 µM. `NCCCC[C@H](NC(=O)CNC(=O)[C@@H]1CSCC(=O)N[C@@H](Cc2ccccc2)C(=O)N[C@@H](Cc2c[nH]c3ccccc23)C(=O)N[C@@H](CC(=O)O)C(=O)N[C@@H](CO)C(=O)N[C@@H](Cc2c[nH]c3ccccc23)C(=O)NCC(=O)N[C@@H](Cc2ccc(O)cc2)C(=O)N[C@@H](Cc2c[nH]c3ccccc23)C(=O)N[C@@H](Cc2ccc(O)cc2)C(=O)NCC(=O)N2CCC[C@H]2C(=O)N[C@@H](Cc2c[nH]c3ccccc23)C(=O)N[C@@H](CC(=O)O)C(=O)N1)C(N)=O` ({CH2CO}-FWDSWGYWYGPWDCGK-NH2; thioether N-14): the IC50 is 14 µM against Interleukin-1 beta [1] and greater than 200 µM at Interleukin-1 alpha. In the case of `O=Cc1ccc(-c2cc(C(=O)O)cn3cc(C(=O)N4CCN(S(=O)(=O)c5ccccc5)CC[C@H]4C(=O)NCCN4CCOCC4)nc23)cc1C(F)(F)F`, the IC50 against Interleukin-1 beta [1] is 1.2 µM; on Interleukin-1 alpha, greater than 200 µM.

On Interleukin-1 beta [2], `Cc1cc(O)c(C(c2cc(C3CC(C(=O)O)C3)ccc2O)c2c[nH]nc2C(=O)O)cc1C` (racemic) came in with a Ki of 43 µM. As to `Cc1ccc2c(c1)NC(=O)[C@@]2(c1cn[nH]c1)c1cc(-c2ccc(C(=O)O)cc2C(=O)O)ccc1O`, the IC50 against Interleukin-1 beta [3] is 5.3 µM; at Interleukin-1 beta [4], 7.9 µM. At Interleukin-1 beta [2], this molecule registered a Ki of less than 10 µM. As to `CC(C)c1cc(-c2cc(C(=O)O)cn3cc(C(=O)N4CCCN(S(=O)(=O)c5ccccc5)CC4)nc23)ccc1C=O`, the half-inhibitory concentration (IC50) at Interleukin-1 beta [1] and against Interleukin-1 alpha was greater than 200 µM throughout.
